Reference: patent publication US7846903B2, “Type II cubic liquid crystal composition” (National Institute of Advanced Industrial Science and …, priority 2004, dated 2010)
Blank lines part the entries; values can stand above or below the molecule they belong to.

What was measured:
[1] = literature; cited from earlier work
[2] = Formation and structure of cubic liquid crystals by polarizing microscopy (penetration method) and SAXS; assay type: physicochemical
Excerpt: Whether or not the amphiphilic lipid/water system forms cubic liquid crystals and whether or not such composition is type I or II can be easily determined by the penetration method. A small amount (several mg) of amphiphilic lipids is placed on a glass slide for a microscope, and slight pressure is applied with a glass cover to form a thin layer of amphiphilic lipids (diameter: about 1 to 5 mm) with a thickness of about 10 μm in the gap between the glass slide and the glass cover. Upon addition of water or an aqueous medium from a side of the gap between the glass slide and the glass cover by capillary action, water gradually invades the amphiphilic lipid thin layer from the exterior edge, and a water content gradient is formed from the amphiphilic lipid thin layer/water interface toward the inside of the amphiphilic lipid thin layer. Polarizing microscopic observation thereof enables the determination of a phase type formed depending on the concentration of the amphiphilic lipid/water system. […] In FIG. 2, 4 regions are observed. The rightmost region in the photograph indicates a water region, and the other regions indicate hydrous amphiphilic lipid regions. In the photograph, the rightmost regions indicates the highest water content and the leftmost region indicates a region of amphiphilic lipids that has not yet been penetrated by water. […] Since cubic liquid crystals are stably formed at the interface of excess water and the amphiphilic lipid portion, such crystals are found to be of type II.
To this end, whether or not the liquid crystal structure has cubic lattices may be investigated by the small-angle x-ray scattering (SAXS) assay. In this process, a sample of an amphiphilic lipid/water system at a given concentration may be introduced into a quartz X-ray capillary tube, the capillary may be sealed with an oxygen burner, and the resultant may be subjected to the SAXS assay.
The cubic liquid crystal composition of the present invention is not particularly limited. […] Thus, spaces and lattice constants can be easily determined. The peak values of small angle X-ray scattering or the cubic lattice size of cubic liquid crystals in the presence of an excess aqueous solvent are at constant levels regardless of the lipid concentration. The coexistence state of cubic liquid crystals and an excess aqueous medium can be confirmed by the SAXS assay. Thus, whether or not the cubic liquid crystals are of type II can be easily determined.
In equations, nL and nW are actually measurable, and ac can be measured by the SAXS experiment. Thus, the dhc value can be determined based on equations (ii) and (iii). […] Based on such comparison, whether or not the cubic liquid crystal structure is of a bicontinuous type can be determined.
Mono-O-(3,7,11,15-tetramethylhexadecyl)pentaerythritol (hereafter referred to as “mono-O-(phytanyl)pentaerythritol,” formula (5) above) and pure water were introduced into a mixing device, and incubation was carried out while performing 100 or more times of mixing operations at room temperature (23° C.) over the period of 48 hours. Thus, a homogeneously mixed sample of mono-O-(phytanyl)pentaerythritol/water system was obtained. This sample of mono-O-(phytanyl)pentaerythritol/water system appeared to be a transparent gel composition.
Subsequently, the thus obtained sample of mono-O-(phytanyl)pentaerythritol/water system (the concentration of the amphiphilic compound: 74.6% by mass) was observed by polarizing microscopy. In entire region of the lipid portions, optically isotropic textures peculiar to the cubic liquid crystals were observed (FIG. 3). In FIG. 3, the right region indicates water and the left region indicates the sample of mono-O-(phytanyl)pentaerythritol/water system. […] Such observation indicates the formation of cubic liquid crystals.
Subsequently, the sample of mono-O-(phytanyl)pentaerythritol/water system was confirmed to be a cubic liquid crystal by small-angle x-ray scattering (SAXS). […]

[3] = Krafft temperature (TK) by DSC of amphiphilic compound/water system; assay type: physicochemical; settings: for TK (Krafft temperature): compound/water system
Method: Liquid crystals such as cubic liquid crystals formed by amphiphilic lipids are formed only at the Krafft temperature (TK), as determined depending on types and concentrations of amphiphilic lipids, or higher. Furthermore, liquid crystals generally undergo a phase transition upon changes in the concentration of the amphiphilic lipid or temperature. Accordingly, the maximal temperature (Tmax) at which a given liquid crystal structure can be stably present is also determined depending on lipid type and concentration of amphiphilic lipid. Thus, a liquid crystal structure formed by a given type of amphiphilic lipid is stably formed in the temperature range between TK and Tmax. The correlation between TK-Tmax and the concentration of the amphiphilic lipid is generally indicated as a “concentration-temperature dependent phase diagram” of the amphiphilic lipid/water system. The Krafft temperature of the amphiphilic lipid can be determined by a method known in the art, such as a method involving the preparation of such a phase diagram (e.g., Laughlin, R. G., “The Aqueous Phase Behavior of Surfactants,” 1994, Academic Press London, pp. 106-117). The Krafft temperature of a mixture of two or more amphiphilic lipids can be determined by the same method.
In the cubic liquid crystal composition of the present invention, stable bicontinuous type II cubic liquid crystals are formed at low temperatures, such as lower than 6° C. In the liquid crystal composition of the present invention, stable bicontinuous type II cubic liquid crystals are typically formed between −10° C. (or at the freezing temperature of the aqueous medium used or higher) and 80° C., and preferably between 0° C. and 50° C. The Krafft temperature of the amphiphilic lipid can be easily determined by, for example, DSC assay of an aqueous solution containing 1% to 85% by mass of amphiphilic lipid or by observing the melting behavior of the amphiphilic lipid under a (polarizing) microscope. More precisely, such temperature may be determined in accordance with a conventional technique involving the preparation of a phase diagram (e.g., Laughlin, R. G., “The Aqueous Phase Behavior of Surfactants,” 1994, Academic Press, London, pp. 106-117).
The Krafft temperatures of these amphiphilic compounds and mixtures thereof determined by the analyses described below are shown in Table 2-1 and Table 2-2.
Subsequently, the sample of mono-O-(phytanyl)pentaerythritol/water system was subjected to differential scanning calorimetry (DSC) in a temperature range between −45° C. and 70° C. DSC analysis employed the Seiko SSC/560U differential scanning calorimeter (Seiko Instruments Inc.). The sample of mono-O-(phytanyl)pentaerythritol/water system (72.4% by mass) prepared by the above method was sealed in a DSC cell, and the sample was incubated while cooling at −45° C. for 3 hours to thoroughly form a hydrated solid of mono-O-(phytanyl)pentaerythritol (hereafter abbreviated as “hydrated solid”). Subsequently, this hydrated solid was heated at a rate of temperature increase of 0.5° C./minute and a melting behavior of the hydrated solid was inspected by DSC analysis. As a result, an endothermic peak resulting from melting of the hydrated solid that begins at around −40° C. and ends at around −27° C. and an endothermic peak resulting from ice melting observed between −10° C. and 1° C. were observed, as shown in FIG. 4. In FIG. 4, the left peak is the endothermic peak resulting from melting of the hydrated solid and the right peak is the endothermic peak resulting from ice melting. Although analysis was conducted up to 70° C., other thermal transition was not observed. Substantially the same results were obtained at other concentrations. Thus, the TK of mono-O-(phytanyl)pentaerythritol was concluded to be 0° C. or lower.

[4] = lipid alone, total amphiphilic compound content 60% by mass (excess water)

maximal temperature at which the cubic liquid crystal structure is formed [2]: 75 °C | diameter of the water channel of the cubic liquid crystals [2, 4]: 3.8 nm | lattice constant of the cubic liquid crystals [2, 4]: 9.2 nm | TK (Krafft temperature) ([3]; listed as β-XP): about 10 °C
Molecule: CC(C)CCCC(C)CCCC(C)CCCC(C)CCOC1OC[C@@H](O)C(O)C1O (some centres unmarked) [formula (13), reference compound]
Krafft temperature [1]: 10 °C

lattice constant ([2]; Ia3d, 69% by mass, 30° C.): 17.4 nm | lattice constant ([2]; Ia3d, 69% by mass, 40° C.): 16.9 nm | lattice constant ([2]; Ia3d, 69% by mass, 50° C.): 17.0 nm | lattice constant ([2]; Pn3m, 61% by mass, 1° C.): 12.2 nm | lattice constant ([2]; Pn3m, 61% by mass, 20° C.): 12.2 nm | lattice constant ([2]; Pn3m, 61% by mass, 30° C.): 12.1 nm | lattice constant ([2]; Pn3m, 61% by mass, 40° C.): 11.4 nm | lattice constant ([2]; Pn3m, 61% by mass, 50° C.): 11.0 nm | lattice constant ([2]; Pn3m, 61% by mass, 60° C.): 10.1 nm | Krafft temperature (° C.) ([3]; amphiphilic compound alone): 0 °C or lower | TK (Krafft temperature) [3]: ≤ 0 °C
Molecule: CC(C)CCCC(C)CCCC(C)CCCC(C)CCCC(=O)OC[C@H](O)[C@H]1OC(=O)C(O)=C1O (stereo partly drawn) [formula (15), 6-O-(5,9,13,17-tetramethyloctadecanoyl)-L-ascorbic acid]
Temperature at which formation of cubic liquid crystals was observed (° C.) ([2]; Table 13, 69% by mass, two-phase system of Pn3m and Ia3d cubic liquid crystals): 20 (Two-phase system of Pn3m and Ia3d ° C.

Molecule: CCCC/C=C\CCCCCCCC(=O)OCC(O)CO (centres unmarked) [monomyristolein]
Krafft temperature [1]: 35 °C

Molecule: CCCCCCCCCCCCCCCCCC(=O)OCC(O)CO (centres unmarked) [monooctadecanoin]
Krafft temperature [1]: 80 °C

Molecule: CCCCCCCC/C=C\CCCCCCCC(=O)OCC(O)CO (centres unmarked) [monoolein]
Krafft temperature [1]: 15 °C

Molecule: CCCCCC/C=C\CCCCCCCCCC(=O)OC[C@H](O)CO [monovaccenin]
Krafft temperature [1]: 15 °C

Molecule: CC(C)CCCC(C)CCCC(C)CCCC(C)(O)C(O)CO (centres unmarked) [phytantriol, 3,7,11,15-tetramethylhexadecyl-1,2,3-triol]
Temperature at which cubic liquid crystals are transformed into inverted hexagonal liquid crystals [1]: ≥ 40 °C

Molecule: monopentadecenoin
Krafft temperature [1]: 30 °C
